Among the data in patent US20240239767A1 (AstraZeneca AB, priority 2022, published 2024) are IC50 values, retold here.

SMILES strings stand for the structures. pIC50: −log10 of the molar value.

The target in test [1] is GSK3b (Glycogen synthase kinase-3 beta) (Homo sapiens, UniProt P49841). The experiment in a line: Assay 6 - GSK3b assay (ThermoFisher, FRET Z-Lyte). Type of test: biochemical. As to conditions: geometric mean; ATP Conc: 10.000 μM; read-out: Assay 6 (GSK3B FRET-Z-Lyte CR) GMean IC50 (μM) ATP Conc: 10.000. The procedure: This assay measures the activity of the compounds at GSK3b (Glycogen synthase kinase-3 beta).
The test compounds were screened in 1% DMSO (final) in the well. For 10-point titrations, 3-fold serial dilutions are conducted from the starting concentration of 10 μM.
• Bar-coded Corning, low volume NBS, black 384-well plate • 1. 2.5 μL—4× Test Compound or 100 nL 100× plus 2.4 μL kinase buffer • 2. 5 μL—2× Peptide/Kinase Mixture • 3. 2.5 μL—4× ATP Solution • 4. 30-second plate shake • 5. 60-minute Kinase Reaction incubation at room temperature • 6. 5 μL—Development Reagent Solution • 7. 30-second plate shake • 8. 60-minute Development Reaction incubation at room temperature • 9. Read on fluorescence plate reader and analyse the data
In step 2, the 2× GSK3β (GSK3 beta)/Ser/Thr (Glycogen synthase kinase-3 beta/Serine/Threonine) 09 mixture is prepared in 50 mM HEPES (4-(2-hydroxyethyl)-1-piperazineethanesulfonic acid) pH 7.5, 0.01% BRIJ-35, 10 mM MgCl2, 1 mM EGTA (egtazic acid). The final 10 μL Kinase Reaction consists of 0.22-0.92 ng GSK3β (GSK3 beta) and 2 μM Ser/Thr 09 in 50 mM HEPES pH 7.5, 0.01% BRIJ-35, 10 mM MgCl2, 1 mM EGTA.
In step 3 the ATP Solution is diluted to a 4× working concentration in Kinase Buffer (50 mM HEPES pH 7.5, 0.01% BRIJ-35, 10 mM MgCl2, 1 mM EGTA).
In Step 6 the Development Reagent is diluted 1:512 in Development Buffer (10× Novel PKC Lipid Mix: 2 mg/mL Phosphatidyl Serine, 0.2 mg/mL DAG in 20 mM HEPES, pH 7.4, 0.3% CHAPS).
SelectScreen® Kinase Profiling Service uses XLfit from IDBS. The dose response curve is curve fit to model number 205 (sigmoidal dose-response model).

For a further test, the target named is PCSK9 (Homo sapiens, UniProt Q8NBP7, G670E/V474I). The experiment in a line: biochemical.
Test [2] addresses T1, potassium ion channel hERG (human Ether-á-go-go-Related Gene) (Homo sapiens, UniProt Q12809).
T1 construct: expressed in transfected cells; host or cells: Chinese hamster ovary K1 (CHO)
The experiment in a line: Assay 5 - hERG assay (SyncroPatch 384PE patch clamp, CHO cells). Type of test: cell-based. As to conditions: geometric mean, CHO cells over-expressing hERG, read-out: Assay 5 (hERG Hu CHO IF EPh CR-Syncro) GMean IC50. The protocol: Assay 5—hERG Assay (Human Ether-á-go-go-Related Gene)
This assay (human Ether-á-go-go-Related Gene) measures activity of the compounds at the potassium ion channel hERG (human Ether-á-go-go-Related Gene).
Experiments were performed on the SyncroPatch 384PE high throughput patch clamp platform at room temperature and medium resistance chips with 4 patch holes per site. Chinese hamster ovary K1 (CHO) cell lines over-expressing the ion channel of choice (hERG) were used in assay-ready format and kept in liquid nitrogen or were used from live culture. Cells were either thawed and diluted in HBSS or were detached from flasks and resuspended in HBSS. HBSS comprised 140 mM NaCl, 4 mM KCl, 10 mM HEPES and 5 mM Glucose (pH 7.4). The internal patch clamp solution was KF 120 mM, KCl 20 mM, HEPES 10 mM, EGTA 10 mM, and 25 μM Escin (pH 7.2). After the sealing process was complete, the external solution was exchanged for external patch clamp solution comprising NaCl 80 mM, KCl 4 mM, HEPES 10 mM, CaCl2 2 mM, MgCl2 1 mM, glucose 5 mM, and NMDG 60 mM (pH 7.4). All solutions were stored at room temperature, except Escin, which was stored at 4° C. All test compounds were dispensed in greiner-bio 384 well plates and tested in a 6 point cumulative assay (final DMSO concentration 0.33%). Only wells that passed previously agreed acceptance criteria for this platform were used in this analysis (30 MegaOhm seal resistance, Z prime>0.4 and current size>0.2 nA).
On the technique in general: Block of hERG is tested as a sign of cardiac risk.

Sequence of PCSK9 (Q8NBP7 with tags, fused parts or gaps V474I/G670E): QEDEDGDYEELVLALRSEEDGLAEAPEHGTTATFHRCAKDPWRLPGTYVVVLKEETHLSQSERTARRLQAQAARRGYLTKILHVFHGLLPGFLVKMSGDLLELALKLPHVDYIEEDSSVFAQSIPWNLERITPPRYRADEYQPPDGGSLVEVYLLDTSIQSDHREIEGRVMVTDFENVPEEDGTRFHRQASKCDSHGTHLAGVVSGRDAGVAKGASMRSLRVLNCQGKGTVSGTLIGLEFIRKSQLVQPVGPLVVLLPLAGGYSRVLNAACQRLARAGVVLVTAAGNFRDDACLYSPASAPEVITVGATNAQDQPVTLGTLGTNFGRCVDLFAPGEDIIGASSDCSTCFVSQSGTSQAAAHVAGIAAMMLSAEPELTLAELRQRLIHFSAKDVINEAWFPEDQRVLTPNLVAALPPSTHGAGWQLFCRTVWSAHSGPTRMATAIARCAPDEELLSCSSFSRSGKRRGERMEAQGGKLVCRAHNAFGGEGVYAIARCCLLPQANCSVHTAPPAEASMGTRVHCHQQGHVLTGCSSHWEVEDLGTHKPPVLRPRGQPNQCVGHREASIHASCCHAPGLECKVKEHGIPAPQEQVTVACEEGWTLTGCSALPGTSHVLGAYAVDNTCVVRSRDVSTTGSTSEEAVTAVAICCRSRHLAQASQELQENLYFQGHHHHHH
T1 sequence (Q12809 whole entry): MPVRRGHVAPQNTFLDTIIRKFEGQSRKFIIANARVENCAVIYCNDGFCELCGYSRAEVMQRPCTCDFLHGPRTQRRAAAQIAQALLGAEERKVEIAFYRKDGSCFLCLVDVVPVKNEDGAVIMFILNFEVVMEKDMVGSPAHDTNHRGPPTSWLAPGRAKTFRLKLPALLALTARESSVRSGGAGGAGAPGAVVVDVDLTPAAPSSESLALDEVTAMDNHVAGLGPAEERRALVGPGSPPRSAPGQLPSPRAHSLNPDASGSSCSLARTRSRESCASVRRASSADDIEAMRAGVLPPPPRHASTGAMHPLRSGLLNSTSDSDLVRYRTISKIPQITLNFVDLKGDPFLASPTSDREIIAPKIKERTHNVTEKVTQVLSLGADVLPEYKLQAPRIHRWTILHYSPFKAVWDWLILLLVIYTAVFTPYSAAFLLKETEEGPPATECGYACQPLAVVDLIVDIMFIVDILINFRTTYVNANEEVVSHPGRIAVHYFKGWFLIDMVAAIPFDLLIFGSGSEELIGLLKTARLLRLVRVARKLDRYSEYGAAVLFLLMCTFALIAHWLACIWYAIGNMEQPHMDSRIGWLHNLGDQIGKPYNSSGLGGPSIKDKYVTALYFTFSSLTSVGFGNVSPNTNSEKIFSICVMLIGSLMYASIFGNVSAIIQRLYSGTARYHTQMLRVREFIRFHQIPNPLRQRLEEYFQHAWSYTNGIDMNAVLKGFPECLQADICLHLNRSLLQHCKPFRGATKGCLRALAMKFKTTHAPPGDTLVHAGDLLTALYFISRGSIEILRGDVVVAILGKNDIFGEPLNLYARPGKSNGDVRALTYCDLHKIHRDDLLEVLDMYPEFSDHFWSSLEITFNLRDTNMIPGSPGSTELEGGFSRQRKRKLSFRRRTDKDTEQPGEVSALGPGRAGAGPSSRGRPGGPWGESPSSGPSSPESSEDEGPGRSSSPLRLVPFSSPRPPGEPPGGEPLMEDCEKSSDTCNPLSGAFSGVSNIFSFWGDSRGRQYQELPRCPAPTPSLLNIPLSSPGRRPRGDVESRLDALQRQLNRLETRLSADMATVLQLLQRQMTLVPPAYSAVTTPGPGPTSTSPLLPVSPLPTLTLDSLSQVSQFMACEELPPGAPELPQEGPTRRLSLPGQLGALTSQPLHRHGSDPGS
Sequence of GSK3b (Glycogen synthase kinase-3 beta) (P49841 whole entry): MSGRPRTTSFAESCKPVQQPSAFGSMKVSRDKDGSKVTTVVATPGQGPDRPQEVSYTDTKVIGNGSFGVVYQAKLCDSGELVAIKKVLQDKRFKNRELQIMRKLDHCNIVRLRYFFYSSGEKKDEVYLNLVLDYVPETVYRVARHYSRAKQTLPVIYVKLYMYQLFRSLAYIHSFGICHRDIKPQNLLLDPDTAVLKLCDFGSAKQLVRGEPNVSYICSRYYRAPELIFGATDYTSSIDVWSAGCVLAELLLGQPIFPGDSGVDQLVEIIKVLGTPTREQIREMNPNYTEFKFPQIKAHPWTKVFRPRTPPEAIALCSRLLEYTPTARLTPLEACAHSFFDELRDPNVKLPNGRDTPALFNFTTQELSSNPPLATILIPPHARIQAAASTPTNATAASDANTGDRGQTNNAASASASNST

On to `Fc1cccc(OC(F)(F)F)c1-c1ccc(N[C@H]2CC[C@H](Nc3nc4cccnc4[nH]3)C2)nc1` [Example 70, (1S,3S)—N^1-(5-(2-Fluoro-6-(trifluoromethoxy)phenyl)pyridin-2-yl)-N^3-(3H-imidazo[4,5-b]pyridin-2-yl)cyclopentane-1,3-diamine], for which the IC50 in test [1] is over 10 µM. This compound showed a pIC50 at PCSK9 of 7.61.
As for `Cc1ncc(-c2ccc(=O)n(-c3ccc(N[C@H]4CC[C@H](Nc5nc6cccnc6[nH]5)C4)nc3)c2)cn1` [Example 53, 6′-(((1S,3S)-3-((3H-Imidazo[4,5-b]pyridin-2-yl)amino)cyclopentyl)amino)-5-(2-methylpyrimidin-5-yl)-2H-[1,3′-bipyridin]-2-one], the pIC50 in test [2] was under 4.40; at PCSK9, 7.72. For the same compound, in test [1], the IC50 was 3.86 µM.
In the same order, the values of `Fc1cccc(OC(F)F)c1-c1ccc(N[C@H]2CC[C@H](Nc3nc4cccnc4[nH]3)C2)nc1` [Example 32, (1S,3S)—N^1-(5-(2-(Difluoromethoxy)-6-fluorophenyl)pyridin-2-yl)-N^3-(3H-imidazo[4,5-b]pyridin-2-yl)cyclopentane-1,3-diamine] are 5.65, 7.68 and over 10 µM.
Take `COc1ccnc2[nH]c(N[C@H]3CC[C@H](Nc4ccc(-n5ccccc5=O)cn4)C3)nc12` [Example 27, 6′-(((1S,3S)-3-((7-Methoxy-3H-imidazo[4,5-b]pyridin-2-yl)amino)cyclopentyl)amino)-2H-[1,3′-bipyridin]-2-one]: the pIC50 in test [2] was under 4.40; on PCSK9, 7.31. In addition, in test [1], the IC50 came out at 2.49 µM.
Turning to `O=c1ccccn1-c1ccc(N[C@H]2CC[C@H](Nc3nc4ccc(Br)cc4s3)C2)nc1` [Example 6, 6′-(((1S,3S)-3-((6-Bromobenzo[d]thiazol-2-yl)amino)cyclopentyl)amino)-2H-[1,3′-bipyridin]-2-one], the results for the pIC50 (in test [2]; at PCSK9) were 5.58 and 5.56, respectively. For the same compound, the IC50 in test [1] was over 10 µM.
As to `CP(C)(=O)c1cnc2[nH]c(N[C@H]3CC[C@H](Nc4ccc(-n5ccccc5=O)cn4)C3)nc2c1` [Example 58, 6′-(((1S,3S)-3-((6-(Dimethylphosphoryl)-3H-imidazo[4,5-b]pyridin-2-yl)amino)cyclopentyl)amino)-2H-[1,3′-bipyridin]-2-one], the pIC50 is under 4.40 in test [2] and 6.66 at PCSK9.
`Cc1ccc2nc(N[C@H]3CC[C@H](Nc4ccc(-n5ccccc5=O)cn4)C3)sc2c1` [Example 8, 6′-(((1S,3S)-3-((6-Methylbenzo[d]thiazol-2-yl)amino)cyclopentyl)amino)-2H-[1,3′-bipyridin]-2-one]: the negative-log IC50 (pIC50) is 5.20 in test [2] and 5.68 against PCSK9. Also, the IC50 in test [1] was over 10 µM.
Turning to `Fc1cccc(F)c1-c1ccc(N[C@H]2CC[C@H](Nc3nc4cccnc4[nH]3)C2)nc1` [Example 68, (1S,3S)—N^1-(5-(2,6-Difluorophenyl)pyridin-2-yl)-N^3-(3H-imidazo[4,5-b]pyridin-2-yl)cyclopentane-1,3-diamine], in test [2], the pIC50 was 5.18. In addition, the IC50 in test [1] is over 10 µM.
As for `O=c1ccccn1-c1ccc(N[C@H]2CC[C@H](Nc3nc4cc(CO)cnc4s3)C2)nc1` [Compound 88], the pIC50 is under 4.40 in test [2] and 8.00 at PCSK9. Further, the IC50 in test [1] is over 10 µM.
For `O=c1ccccn1-c1ccc(N[C@H]2CC[C@H](Nc3nc4cc(C5CC5)cnc4[nH]3)C2)nc1` [Example 55, 6′-(((1S,3S)-3-((6-Cyclopropyl-3H-imidazo[4,5-b]pyridin-2-yl)amino)cyclopentyl)amino)-2H-[1,3′-bipyridin]-2-one] the same measures were under 4.40, 8.59 and 1.77 µM.
In the same order, the values of `N#Cc1ccc2sc(N[C@H]3CC[C@H](Nc4ccc(-n5ccccc5=O)cn4)C3)nc2c1` [Example 9, 2-(((1S,3S)-3-((2-Oxo-2H-[1,3′-bipyridin]-6′-yl)amino)cyclopentyl)amino)benzo[d]thiazole-5-carbonitrile] are 5.45, 7.75 and 1.51 µM.
For `O=c1cccnn1-c1cnc(N[C@H]2CC[C@H](Nc3nc4cccnc4[nH]3)C2)nc1` [Example 31, 2-(2-(((1S,3S)-3-((3H-Imidazo[4,5-b]pyridin-2-yl)amino)cyclopentyl)amino)pyrimidin-5-yl)pyridazin-3(2H)-one] the same measures were under 4.40, 7.60 and over 10 µM.
`O=c1ccccn1-c1ccc(N[C@H]2CC[C@H](Nc3nc4ccc(Br)cc4o3)C2)nc1` [Example 3, 6′-(((1S,3S)-3-((6-Bromobenzo[d]oxazol-2-yl)amino)cyclopentyl)amino)-2H-[1,3′-bipyridin]-2-one]: the pIC50 was 5.38 in test [2] and 8.09 on PCSK9. Further, in test [1], the IC50 is over 10 µM.
For `O=c1ccc2ccccc2n1-c1ccc(N[C@H]2CC[C@H](Nc3nc4cccnc4[nH]3)C2)nc1` [Example 33, 1-(6-(((1S,3S)-3-((3H-Imidazo[4,5-b]pyridin-2-yl)amino)cyclopentyl)amino)pyridin-3-yl)quinolin-2(1H)-one], the pIC50 in test [2] is under 4.40. Also, in test [1], the IC50 is over 10 µM.
Regarding `O=c1ccccn1-c1ccc(N[C@H]2CC[C@H](Nc3nc4cc(CO)ccc4s3)C2)nc1` [Example 84, 6′-(((1S,3S)-3-((5-(Hydroxymethyl)benzo[d]thiazol-2-yl)amino)cyclopentyl)amino)-2H-[1,3′-bipyridin]-2-one], the pIC50 is under 4.40 in test [2] and 6.62 against PCSK9. Besides, the IC50 in test [1] was over 10 µM.
For `Fc1cccnc1-c1ccc(N[C@H]2CC[C@H](Nc3nc4cccnc4[nH]3)C2)nc1` [Example 30, (1S,3S)—N^1-(3-Fluoro-[2,3′-bipyridin]-6′-yl)-N^3-(3H-imidazo[4,5-b]pyridin-2-yl)cyclopentane-1,3-diamine] the same measures were 5.50, 7.46 and over 10 µM.
In the same order, the values of `O=c1ccccn1-c1ccc(N[C@H]2CC[C@H](Nc3nc4ccccc4o3)C2)nc1` [Example 1, 6′-(((1S,3S)-3-(Benzo[d]oxazol-2-ylamino)cyclopentyl)amino)-2H-[1,3′-bipyridin]-2-one] are under 4.40, 7.46 and over 10 µM.
With `N#Cc1ccc(=O)n(-c2ccc(N[C@H]3CC[C@H](Nc4nc5cccnc5o4)C3)nc2)c1` [Example 17, 6′-(((1S,3S)-3-(Oxazolo[5,4-b]pyridin-2-ylamino)cyclopentyl)amino)-2-oxo-2H-[1,3′-bipyridine]-5-carbonitrile], the pIC50 is under 4.40 in test [2] and 7.52 on PCSK9. Also, the IC50 in test [1] is over 10 µM.
As for `Cn1c(=O)n(-c2ccc(N[C@H]3CC[C@H](Nc4nc5cccnc5[nH]4)C3)nc2)c2ncccc21` [Example 45, 3-(6-(((1S,3S)-3-((3H-Imidazo[4,5-b]pyridin-2-yl)amino)cyclopentyl)amino)pyridin-3-yl)-1-methyl-1,3-dihydro-2H-imidazo[4,5-b]pyridin-2-one], the negative logarithm of the IC50 (pIC50) in test [2] was under 4.40. Besides, in test [1], the IC50 is over 10 µM.
`O=c1ccccn1-c1ccc(N[C@H]2CC[C@H](Nc3nc4ccc(OC(F)F)cc4o3)C2)nc1` [Example 85, 6′-(((1S,3S)-3-((6-(Difluoromethoxy)benzo[d]oxazol-2-yl)amino)cyclopentyl)amino)-2H-[1,3′-bipyridin]-2-one] showed a negative logarithm of the IC50 (pIC50) against PCSK9 of 7.84.

In general, IC50 refers to the concentration that inhibits the measured activity by half. One may read the pIC50 as −log10 of the IC50, conventionally taken in molar units.
